Experimental data published in patent publication EP2608671B1, “COMPOUNDS FOR TREATMENT OF CANCER” (Gtx, Inc., priority 2010, dated 2012).
Where two headings read alike, the source gives them in different places.

Experiments:
[1] = test system: PC-3; test: cells
Source text: (§1) The only compounds which belong to the invention are the ones falling under the scope of formula (XI).
Cells were stained with SRB solution.
Cells. […] Cells between the third and fifth passages were used for experiments.
Cell growth inhibition studies. […] Cells were stained with sulphorhodamine B (SRB) solution.

[2] = test system: A375; test: SRB cell growth inhibition (cytotoxicity) assay; format: cell-based, human
[3] = test system: LNCaP; test: cells; conditions: Homo sapiens, 96 h, read-out: IC50 ± SEM (nM), LNCaP
[4] = test system: prostate cancer cell lines (LNCaP, DU 145, PC-3, PPC-1); test: SRB cytotoxicity, prostate cancer cell panel (text summaries); format: cell-based; conditions: Homo sapiens, read-out: IC50 against prostate cancer cells
Source text: as §1

[5] = test system: PPC-1; test: cells; conditions: Homo sapiens, PPC-1, 96 h, read-out: IC50 ± SEM (nM), PPC-1
[6] = test system: DU 145; test: cells; conditions: Homo sapiens, DU-145, 96 h
[7] = test system: B16-F1; test: SRB cell growth inhibition (cytotoxicity) assay; format: cell-based, mouse
Source text: as §1

[8] = test system: NCI/ADR-RES; test: SRB growth inhibition, P-gp over-expressing MDR line; format: cell-based, human; conditions: for Resistance factor: NCI/ADR-RES vs OVCAR-8, 5760 min; for IC50: Homo sapiens, NCI/ADR-RES, P-gp over-expressed MDR cell line, Table 5A, read-out: IC50 (nM), NCI/ADR-RES
[9] = test system: Bovine brain tubulin; test: In vitro tubulin polymerization assay; format: biochemical; conditions: 10 µM; for tubulin polymerization inhibited: 20 min incubation, compared to vehicle
Source text: (§2) In Vitro Tubulin Polymerization Assay.
as §2
In vitro microtubule polymerization assay.

[10] = test system: OVCAR-8; test: SRB growth inhibition, MDR model parent line; format: cell-based, human; conditions: Homo sapiens, OVCAR-8; Table 5A; read-out: IC50 (nM), OVCAR-8
[11] = test system: WM-164; test: SRB cell growth inhibition (cytotoxicity) assay; format: cell-based, human
[12] = test system: melanoma cell lines (A375, WM-164, B16-F1) and prostate cancer cell lines (LNCaP, DU 145, PC-3, PPC-1); test: SRB cytotoxicity, melanoma and prostate cell panel (averages); format: cell-based; conditions: Prostate cell; summary of Tables 2, 3, 21; read-out: IC50 range over tested melanoma and prostate cell lines
Source text: as §1

[13] = test system: PC-3 prostate tumor xenograft; test: In vivo antitumor efficacy, PC-3 xenograft; parameters: species or system mouse; conditions: PC-3, 50 mg/kg i.p.; control 680 mm^3
Source text: PC-3 and A375 tumor xenograft studies.
In vivo antitumor activity [tumor growth inhibition (% T/C), tumor growth delay (T-C value), and tumor cell kill (total log cell kill)].

[14] = test system: PPC-1
[15] = Homo sapiens, PC-3, 96 h, read-out: IC50 ± SEM (nM), PC-3
[16] = Homo sapiens, A-375, 96 h, read-out: IC50 ± SEM (nM), A375
[17] = read-out: IC50 ± SEM (nM), DU 145
[18] = Mus musculus, B16-F1, read-out: IC50 ± SEM (nM), B16-F1
[19] = summary over LNCaP, PC-3, DU-145, PPC-1

Row | Compound | IC50 [1, 15] [nM] | IC50 [2, 16] [nM] | IC50 [3] [nM] | IC50 [5] [nM] | IC50 [6, 17] [nM] | IC50 [7, 18] [nM] | Resistance factor [8] | other results
1 | COc1cc(C(=O)c2cc(-c3ccccc3)ncn2)cc(OC)c1OC [1b, (6-Phenylpyrimidin-4-yl)(3,4,5-trimethoxyphenyl)methanone] | 8300 | > 30000 | 7000 | 3700 | 6900 | > 30000 | – | IC50 ([4]; summary of Table 1): 3.7 to 8.3 µM
2 | COc1cc(C(=O)c2cccc(-c3ccccc3)n2)cc(OC)c1OC [1c, (6-Phenylpyridin-2-yl)(3,4,5-trimethoxyphenyl)methanone] | – | – | – | – | – | – | 0.4 | IC50 [4, 19]: 0.012 to 0.035 µM
3 | COc1cc(C(=O)c2ccc(-c3ccccc3)o2)cc(OC)c1OC [1d, (5-Phenylfuran-2-yl)(3,4,5-trimethoxyphenyl)methanone] | 21 | 27 ± 8 | 23 | 20 | 35 | 151 ± 24 | – | IC50 [4, 19]: 0.012 to 0.035 µM
4 | COc1cc(C(=O)c2cnc(-c3ccccc3)s2)cc(OC)c1OC [1e, (2-Phenylthiazol-5-yl)(3,4,5-trimethoxyphenyl)methanone] | > 10000 | 13600 ± 3800 | > 10000 | > 10000 | > 10000 | 12500 ± 5200 | – | IC50 ([4]; summary of Table 1): > 10 µM
5 | COc1cc(C(=O)c2csc(-c3ccccc3)c2)cc(OC)c1OC [1f, (5-Phenylthiophen-3-yl)(3,4,5-trimethoxyphenyl)methanone] | 12 | 15 ± 6 | – | 15 | 26 | 72 ± 15 | – | IC50 [4, 19]: 0.012 to 0.035 µM
6 | COc1cc(C(=O)N2CCC(c3ccccc3)CC2)cc(OC)c1OC [1g, (4-Phenylpiperidin-1-yl)(3,4,5-trimethoxyphenyl)methanone] | > 20000 | > 30000 | > 20000 | > 20000 | > 20000 | > 30000 | – | IC50 ([4]; summary of Table 1): > 20 µM
7 | COc1cc(C(=O)c2cc(-c3ccccc3)on2)cc(OC)c1OC [1i, (5-Phenylisoxazol-3-yl)(3,4,5-trimethoxyphenyl)methanone] | > 10000 | > 30000 | > 10000 | > 10000 | > 10000 | > 30000 | – | IC50 ([4]; summary of Table 1): > 10 µM
8 | COc1cc(C(=NC#N)c2csc(-c3ccccc3)n2)cc(OC)c1OC [2j, N-((2-phenylthiazol-4-yl)(3,4,5-trimethoxyphenyl)methylene)cyanamide] | 27 ± 1 | 28 ± 12 | 23 ± 2 | 20 ± 1 | 42 ± 2 | 60 ± 21 | 0.4 | tubulin polymerization inhibited [9]: 64%; IC50 [8]: 14 ± 1 nM; IC50 [10]: 34 ± 2 nM; IC50 ([11]; Homo sapiens, WM164, SRB assay, 96 h, Table 2, read-out: IC50 ± SEM (nM), WM-164): 27 ± 13 nM; IC50 [12]: 0.02 to 0.06 µM
9 | COc1cc(C(=O)c2csc(-c3ccc(O)cc3)n2)cc(OC)c1OC [2l, (2-(4-Hydroxyphenyl)thiazol-4-yl)(3,4,5-trimethoxyphenyl)methanone] | 87 | 100 | 103 | 76 | 116 | 110 | – | inhibited tubulin polymerization ([9]; 15 min, Figure 28B): 55%; Tumor volume at day 21 [13]: 331 mm^3; IC50 [12]: 0.076 to 0.116 µM
10 | COc1cc(C(=O)c2csc(Nc3ccccc3)n2)cc(OC)c1OC [5a, (2-(Phenylamino)thiazol-4-yl)(3,4,5-trimethoxyphenyl)methanone] | 57 ± 3 | 45 ± 8 | 51 ± 1 | 54 ± 1 | 70 ± 4 | 65 ± 12 | 0.6 | tubulin polymerization inhibited [9]: 78%; IC50 [8]: 27 nM; IC50 [10]: 46 ± 6 nM
11 | COc1cc(C(=O)c2csc(Nc3ccc(C)cc3)n2)cc(OC)c1OC [5b, (2-(p-Tolylamino)thiazol-4-yl)(3,4,5-trimethoxyphenyl)methanone] | – | – | – | – | – | – | 0.8 | IC50 [8]: 21 nM; IC50 [10]: 28 nM
12 | COc1cc(C(=O)c2csc(Nc3ccc(F)cc3)n2)cc(OC)c1OC [5c, (2-(p-Fluorophenylamino)thiazol-4-yl)(3,4,5-trimethoxyphenyl)methanone] | 43 ± 1 | – | 41 ± 1 | – | 63 ± 1 | – | 0.6 | IC50 [8]: 25 ± 6 nM; IC50 [10]: 44 ± 3 nM
13 | COc1cc(C(=O)c2c[nH]c(Nc3ccccc3)n2)cc(OC)c1OC [5e, (2-(Phenylamino)-1H-imidazol-4-yl)(3,4,5-trimethoxyphenyl)methanone] | > 1000 | – | > 1000 | > 1000 | > 1000 | – | – | IC50 [4, 19]: > 1 µM
14 | Cc1ccc(-c2nc(C(=O)c3ccc(F)cc3)c[nH]2)cc1 [12db, (4-fluorophenyl)(2-(p-tolyl)-1H-imidazol-4-yl)methanone] | 56 ± 3 | – | 45 ± 2 | 34 ± 1 | – | – | – | inhibition of tubulin polymerization ([9]; 15 min, Figure 22): ~80%; IC50 ([2]; Homo sapiens, A-375, A375 melanoma cells, 48 h, SRB, read-out: IC50 ± SEM (nM) A375): 143 ± 13 nM; IC50 ([6]; read-out: IC50 ± SEM (nM) Du 145): 78 ± 5 nM
15 | COc1cc(C(=O)[C@H]2COC(c3ccccc3)=N2)cc(OC)c1OC [35a, (2R)-(2-Phenyl-4,5-dihydro-oxazol-4-yl)-(3,4,5-trimethoxy-phenyl)-methanone] | – | – | – | – | – | – | – | IC50 ([2]; SRB assay, 96 h, Tables 1, 2, 3, 5B, 5C, read-out: IC50 ± SEM (nM), A375): 500 ± 100 nM; IC50 ([14]; read-out: IC50 ± SEM (nM), PPC-1, SRB assay, 96 h, Tables 1, 2, 3, 5B, 5C): 1100 ± 100 nM; IC50 ([7]; SRB assay, Tables 1, 2, 3, 5B, 5C, read-out: IC50 ± SEM (nM), B16-F1): 6500 ± 800 nM
16 | COc1cc(C(=O)c2csc(-c3ccc4[nH]ccc4c3)n2)cc(OC)c1OC [66a] | 7 | 8 ± 1 | 10 | 8 | 13 | 25 ± 13 | 0.4 | tubulin polymerization inhibited [9]: 81%; IC50 [8]: 4 ± 2 nM; IC50 [10]: 10 ± 3 nM; IC50 [12]: 0.007 to 0.025 µM
17 | (1-(phenylsulfonyl)-2-(1-(phenylsulfonyl)-1H-indol-3-yl)-1H-imidazol-4-yl)(3,4,5-trimethoxyphenyl)methanone [17yaa] | – | – | – | – | – | – | – | IC50 ([1]; read-out: IC50 (nM), PC-3, Table 6A): 148 nM; IC50 ([2]; Table 6A, read-out: IC50 (nM), A375): 481 nM; IC50 ([14]; read-out: IC50 (nM), PPC-1, Table 6A): 209 nM; IC50 ([11]; Table 6A, read-out: IC50 (nM), WM164): 468 nM; IC50 ([7]; Table 6A, read-out: IC50 (nM), B16-F1): 539 nM
